Results taken from ChEMBL document CHEMBL1201862, “PubChem BioAssay data set” (2004).
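Following 48 hours of exposure in 96-well plates, responses at five concentrations were used to interpolate endpoints linearly. The concentration for 50% growth inhibition is given as GI50.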 The source made the active and inactive calls. Rule as the data show it: active = GI50 up to about 1.1 µM and inactive = higher.

What was measured:
Assay in all cases: growth of human tumour cells (NCI), 48 h
[1] = system: SF-539
[2] = system: HL-60
[3] = system: M14
[4] = system: SK-MEL-2
[5] = system: TK-10
[6] = system: SNB-19
[7] = system: DU-145
[8] = system: LOX IMVI
[9] = system: MDA-MB-435
[10] = system: NCI-H23
[11] = system: SR
[12] = system: HCT-15
[13] = system: UACC-257
[14] = system: NCI-H522
[15] = system: HCC 2998
[16] = system: MDA-MB-231
[17] = system: 786-0
[18] = system: SK-MEL-28
[19] = system: ACHN
[20] = system: SF-268

| SMILES | GI50 [1] | GI50 [2] | GI50 [3] | GI50 [4] | GI50 [5] | GI50 [6] | GI50 [7] | GI50 [8] | GI50 [9] | GI50 [10] | GI50 [11] | GI50 [12] [µM] | GI50 [13] | GI50 [14] | GI50 [15] | GI50 [16] | GI50 [17] | GI50 [18] | GI50 [19] | GI50 [20] |
| --- | --- | --- | --- | --- | --- | --- | --- | --- | --- | --- | --- | --- | --- | --- | --- | --- | --- | --- | --- | --- |
| O=c1[nH]/c(=C/c2ccc(OCc3ccccc3)cn2)c(=O)[nH]/c1=C/c1ccc(Cl)cc1 | 3.08 µM (inactive) | 0.726 µM (active) | 1.87 µM (inactive) | 4.73 µM (inactive) | 15.1 µM (inactive) | 5.55 µM (inactive) | > 23.9 µM (inactive) | > 22.1 µM (inactive) | 0.21 µM (active) | 7.87 µM (inactive) | 0.301 µM (active) | 0.469 | 1 µM (active) | 0.723 µM (active) | 2.52 µM (inactive) | 46.1 µM (inactive) | 1.83 µM (inactive) | > 76.7 µM (inactive) | 4.24 µM (inactive) | 1.87 µM (inactive) |
| O=C(/C=C/c1cc2ccccc2o1)N1CCN(c2ccccn2)CC1 | > 100 µM (inactive) | 40.7 µM (inactive) | 71.6 µM (inactive) | > 100 µM (inactive) | 79.6 µM (inactive) | > 100 µM (inactive) | > 100 µM (inactive) | > 100 µM (inactive) | > 100 µM (inactive) | > 100 µM (inactive) | > 100 µM (inactive) | 74.6 | > 100 µM (inactive) | 28 µM (inactive) | > 100 µM (inactive) | 90.2 µM (inactive) | > 100 µM (inactive) | 35.9 µM (inactive) | – | > 100 µM (inactive) |
| Nc1nc(Cl)cc(NCC2(O)CCC2)n1 | > 100 µM (inactive) | > 100 µM (inactive) | – | > 100 µM (inactive) | > 100 µM (inactive) | – | > 100 µM (inactive) | > 100 µM (inactive) | > 100 µM (inactive) | > 100 µM (inactive) | > 100 µM (inactive) | > 100 | > 100 µM (inactive) | > 100 µM (inactive) | > 100 µM (inactive) | > 100 µM (inactive) | > 100 µM (inactive) | > 100 µM (inactive) | > 100 µM (inactive) | > 100 µM (inactive) |
| O=[N+]([O-])/C=C\c1c[nH]c2ccc(OCc3ccccc3)cc12 | 10.4 µM (inactive) | 2.62 µM (inactive) | 2.18 µM (inactive) | 11.5 µM (inactive) | 10.4 µM (inactive) | 4.89 µM (inactive) | 7.46 µM (inactive) | 1.86 µM (inactive) | 2.16 µM (inactive) | 3.4 µM (inactive) | 2.03 µM (inactive) | – | 1.64 µM (inactive) | 10.2 µM (inactive) | 1.67 µM (inactive) | 3.57 µM (inactive) | 1.93 µM (inactive) | 3.03 µM (inactive) | 2.13 µM (inactive) | 4.37 µM (inactive) |
